A word on the melting point: it is the temperature, or range, at which the solid turns liquid.

Structures are written as SMILES.

The compound `CS(=O)(=O)c1ccc(-c2cnn(-c3cccc(Br)c3)c(=O)c2Oc2ccc(F)cc2)cc1` registered a melting point of 208 to 210 °C.
Then `O=C(OCc1ccccc1)c1cc2c(=O)n(Cc3ccccc3)c(=O)[nH]c2s1`, with 195 to 197 °C; and `O=C1Nc2ccc(Cl)c(Cl)c2C1c1ccccc1F` (configuration not stated), with 244 to 247 °C.
Under `O=S(=O)(NC1CC1)c1cccc(-c2cc(-c3nc(-c4ccc(C(F)(F)F)cc4)cc(C(F)(F)F)n3)ccn2)c1` stands 196 °C.
In turn, `Cc1cc(C2=NOC(c3cc(Cl)cc(Cl)c3)(C(F)(F)F)C2)ccc1C(=O)NC1CON(CCO)C1=O` (configuration not stated) registered a melting point of 78 °C.
Under `CCOC(=O)c1c(C)c(C(=O)CC#N)n(C)c1C` stands 105 °C.
Then `CC(=O)N[C@@H](C)c1ccc(CO)cc1`, with 103 to 104 °C; and `Nc1cccc(NC(=O)NC2N=C(c3ccccc3F)c3ccccc3N(CC(=O)N3CC4CCC(CC4)C3)C2=O)c1` (racemic), with more than 250 °C; and `CCc1cn(C2OC(CN)C(O)C2F)c(=O)[nH]c1=O` (configuration not stated), with 194 to 214 °C.
Under `COc1cc(C2CCNCC2)ccc1Nc1ncc2ccc(-c3cccc(S(=O)(=O)NC(C)(C)C)c3)n2n1` stands 201 to 202 °C; under `CCS(=O)(=O)c1cccnc1S(N)(=O)=O`, 211 to 212 °C; under `CCOC(=O)C(CC)Cc1ccc(N2C(=O)c3ccccc3C2=O)cc1` (configuration not stated), 86 to 87 °C.
The compound `CNc1cccc2c1C(=O)c1ccccc1C2=O` gave a melting point of 172 °C.
Then `COc1cc(OC)c2c(=O)[nH]c(-c3cc(C)c(OCCN4CCOCC4)c(C)c3)cc2c1`, with 196 to 198 °C; and `COc1c(Cl)c(OC)c2cnoc2c1Cl`, with 138 to 140 °C; and `CCOC(=O)c1ncn(C2OC(COC(=O)c3ccccc3)C(OC(=O)c3ccccc3)C2OC(=O)c2ccccc2)c1C(=O)OCC` (configuration not stated), with 134 to 136 °C.
`O=C(Nc1cccc([N+](=O)[O-])c1)c1ccc([N+](=O)[O-])cc1` showed a melting point of 229 to 232 °C.
Under `C#CC(C)(C)N1CCN(C(=O)C(C)(C)C)CC1` stands 106 to 109 °C; under `CCOc1nn(Cc2ccc(OCn3nnc4ccccc43)cc2)cc1CCC(=O)O`, 136 to 137 °C; under `COC(=O)C(C)(C)Cc1ccc2cc(CC(C)(C)C(=O)OC)ccc2c1`, 108 to 110 °C.
Then `CC(=O)C1C(C(=O)c2ccc(Br)cc2)CC2C3CCC4=CC(=O)C=CC4(C)C3(F)C(O)CC21C` (configuration not stated), with 285 to 286 °C; and `O=Cc1ccccc1Oc1ccc(C(F)(F)F)cc1[N+](=O)[O-]`, with 79 to 81 °C; and `Cc1cc(NNC(=O)OC(C)(C)C)nnc1-c1ccc(C#N)cc1`, with 169 to 171 °C.
Under `COc1cc(S(C)=O)c(C)cc1OCC(=O)NCC(O)COc1ccccc1C` (configuration not stated) stands 106 to 108 °C.
Take `O=CC1CC1(c1ccccc1)c1ccccc1` (configuration not stated): the melting point lay in the range of 71 to 73 °C.
Under `CN1C(=O)CC2(CCc3cc4ccccc4n3C2)C1=O` (configuration not stated) stands 158 to 164 °C.
Then `O=C(O)c1cc(F)cc(-c2cccc3cc(Cc4cc(F)cc(Cl)c4)sc23)c1`, with 168 to 170 °C; and `CC1(C)CC(NC(=O)C(O)c2ccccc2)c2cc(C#N)ccc2O1` (configuration not stated), with 120 to 121 °C.
Then `CCOC(=O)/C=C/c1cn(Cc2ccccc2)nc1OCc1ccc(OCc2nc(-c3ccco3)oc2C)c(OC)c1`, with 147 to 148 °C; and `OCc1cccc(-c2cccc(F)c2)c1-c1cccc(F)c1`, with 114 to 116 °C; and `CCC(=O)C(C#N)Cc1cc(Cl)cc(Cl)c1` (configuration not stated), with 59 to 60 °C.
Regarding `O=C(/C=C/c1ccc(NS(=O)(=O)c2ccc(-c3ccccc3)cc2)cc1)NO`, the melting point was in the range of 190 to 192 °C.
Under `CCc1cccc2c3c([nH]c12)C1(CC(=O)O)CC1CC3` (configuration not stated) stands 154 to 156 °C; under `CCCCCCCCC(=O)NCCc1ccc(O)cc1`, 65.9 to 66.7 °C; under `CCCCOc1nc(NC2=CCC(=C=C3CC4CCC3(C)C4(C)C)C=C2)nc(NC2=CCC(=C=C3CC4CCC3(C)C4(C)C)C=C2)n1`, 181 °C.
Under `CCN(c1nc(C)cc(C(=O)N2CCN(C)CC2)n1)c1ccc(C(C)C)cc1Br` stands 81 to 82 °C; under `COC(=O)Nc1nc2ccc(Sc3ccccc3)cn2c1Br`, 165 to 168 °C; under `CCCCNc1n[nH]c(C)c1C(=O)OCC`, 109 to 110 °C.
Then `O=C1Cc2cc(NC(=O)C(=O)O)ccc2N1`, with 256 °C.
Compound `CCOc1ccc(N(C)C=C(C#N)C#N)cc1` had a melting point of 147 to 148 °C.
Under `O=C(O)C1Cc2c(ncn2CCc2ccccc2)CN1C(=O)Cc1ccccc1` (configuration not stated) stands 215 to 220 °C; under `CCOCCCOc1ccc(-c2ccc3c(c2)C=C(C(=O)Nc2ccc(CN(C)C4CCOCC4)cc2)CCS3(=O)=O)cc1Cl`, 182 to 183 °C; under `CC1(C)CC(NC(=O)Nc2ccc(C(F)(F)F)cc2)CC(C)(C)C1=O`, 152 to 153 °C.
In turn, `O=c1nc(-c2ccccn2)sc2cc(Br)ccc12` displayed a melting point of 231 to 232 °C.
Under `CCc1ccc(Nc2nc3cc(NC(=O)c4cc([N+](=O)[O-])ccc4Cl)ccc3o2)cc1` stands more than 250 °C.
Under `O=C1CCCc2ccc(OCc3cccc(Cl)c3)cc21` stands 77 to 78 °C; under `Cc1c(OCC(C)(C)CS(N)(=O)=O)nn2ncnc2c1C`, 175 to 177 °C.
Under `O=S(CBr)c1ccc2c(c1)OCO2` (configuration not stated) stands 88 to 89 °C; under `C[C@H]1[C@@H](O)[C@H](Cc2ccccc2)C(=O)N1c1ccc(C#N)c(Cl)c1`, 99 to 101 °C.
`CCOC(=O)c1cn(C)c2nc3c(F)c(N4CCNC(c5ccc(OC)cc5)C4)c(F)cc3cc2c1=O` (racemic) gave a melting point of 209 °C.
Then `NNC(=O)c1ccc2[nH]ncc2c1`, with 251 to 252 °C; and `Oc1cc2c(cc1CNc1ccc(F)cc1F)OCC2`, with 119 to 121 °C; and `O=C(O)c1ccc(/C=C/c2ccc(O)c(C34CC5CC(CC(C5)C3)C4)c2)cc1`, with 279 to 280 °C.
`O=C(CF)Nc1ccccc1` gave a melting point of 77 to 78.5 °C.
Under `CCCn1c(=O)c2c(NC)n(C(=O)C(C)C)nc2n(Cc2cccc(Cl)c2)c1=O` stands 154 to 156 °C.
`O=C(O)c1c(-c2ccc(F)c(Cl)c2)c2ccccc2n1Cc1cc2c(cc1Cl)OCO2`: the melting point is 210 to 211 °C.
Under `CC(C)(C)c1cc(C(=O)CCl)ccc1Cl` stands 159 °C; under `Cc1nnc(-c2ccc3occ(-c4ccc5c(c4)C(C)(C)CS5)c3c2)o1`, 159 to 160 °C.
Consider `NCC1c2ccccc2CCN1CC(O)CN1CCOCC1` (configuration not stated), for which the melting point fell in the range of 138 to 139 °C.
Then `CC(C)(C1OCCO1)C(O)(COc1cccc2ccccc12)Cn1ccnc1` (configuration not stated), with 126 °C; and `CC(=O)OCC=C(C)C=CC=C(C)C=O`, with 71 to 72 °C.
Then `C#CCN1CCN(CC(=O)N2c3ccccc3C(=O)Nc3cccnc32)CC1`, with 249 to 250 °C.

The values are drawn from a melting point compilation (Tetko et al.; mined from patent text by program, amines drawn as free bases though some values may be those of a salt).
